Measured values as given in patent publication US20070105085A1 (Scripps Research, published 2007).
Entries after “also recorded” stand apart in the source; their conditions may differ.

How the values were obtained:
[1] = biological target: T1, MsbA (Salmonella typhimurium, UniProt P63359); assay: ATPase activity of detergent solubilized MsbA, linked enzyme assay; assay type: biochemical
T1 construct: 23-residue pET19b fusion leader with deca-histidine tag (N); made in house; host or cells: E. coli BL21 (DE3)
Experimental: ATPase Activity. ATPase activity was measured using an ATP-regenerating system described by Vogel and Steinhart, and modified by Urbatsch et al. Briefly, 1 μg of MsbA was added to 100 μl of Linked Enzyme (LE) buffer at 37° C. containing 10 mM ATP, 12 mM MgCl2, 6 mM phosphoenolpyruvate (PEP), 1 mM NADH, 10 units of lactate dehydrogenase (LDH), 10 units of pyruvate kinase (PK), and 50 mM Tris-HCl, pH 7.5. ATP hydrolysis was measured as the decrease in absorbance of NADH at 340 nm using a DXT880 multiplate spectrofluorimeter (Beckman-Coulter). Activity of MsbA in the presence of either E. coli polar lipids (10 μg/ml) or a non-ABC, ATPase inhibitor cocktail (1 mM EGTA, 1 mM NaN3, 0.2 mM ouabain) was measured (FIGS. 28-30). Each data point is the average of 5 independent measurements with standard error bars shown.

[2] = biological target: MsbA (Escherichia coli, UniProt P60752); conditions: cited from earlier work
Chain of MsbA (Escherichia coli, UniProt P60752) (P60752 whole entry, species assumed): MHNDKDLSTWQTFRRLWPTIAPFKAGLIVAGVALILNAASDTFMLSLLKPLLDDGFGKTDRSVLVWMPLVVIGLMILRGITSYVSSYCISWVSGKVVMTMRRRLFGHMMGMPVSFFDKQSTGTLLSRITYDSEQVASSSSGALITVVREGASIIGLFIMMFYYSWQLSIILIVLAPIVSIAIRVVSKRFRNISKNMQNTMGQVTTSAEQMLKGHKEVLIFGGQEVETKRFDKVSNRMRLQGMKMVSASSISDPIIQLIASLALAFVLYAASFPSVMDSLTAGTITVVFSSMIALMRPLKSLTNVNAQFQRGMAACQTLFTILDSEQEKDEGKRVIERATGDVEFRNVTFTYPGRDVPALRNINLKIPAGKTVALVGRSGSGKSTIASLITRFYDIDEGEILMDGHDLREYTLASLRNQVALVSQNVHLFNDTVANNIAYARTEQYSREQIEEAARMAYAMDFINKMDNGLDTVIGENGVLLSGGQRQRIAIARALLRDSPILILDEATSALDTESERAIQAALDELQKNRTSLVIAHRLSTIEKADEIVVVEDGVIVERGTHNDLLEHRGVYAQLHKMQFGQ

[3] = tested on: ΔacrAB E. coli cells overexpressing MsbA; assay: Doxorubicin retention in ΔacrAB E. coli cells overexpressing MsbA; assay type: cell-based; conditions: 0-100 μM PSC; change of fluorescence at 400 sec versus 0 sec; P<0.05
Experimental: Doxorubicin Retention. A pET 15b vector containing the msbA gene from Salmonella typhimurium LT2 was transformed into an E. coli strain deficient in the multiple-drug efflux pump AcrAB (ECΔacrAB). Single colony cultures were grown to optical density (OD600 nm) of 0.6 in the presence of 1 mM IPTG to induce overexpression of MsbA, harvested and washed three times with 100 mM potassium phosphate buffer (pH 7.5) containing 5 mM MgSO4 and concentrated to an OD600 of 20. Cellular accumulation of doxorubicin was accomplished by incubation of cells with 11.5 μM doxorubicin and 40 μM carbonyl cyanide m-chlorophenylhydrazone (CCCP) while shaking for 1 hour at 37° C. The cells were then washed three times and incubated for 15 minutes at 37° C. with 40 μM CCCP and 0, 1, 10, 25, 50 or 100 μM PSC. Efflux was initiated by addition of 25 mM glucose and fluorescence in the cell suspensions was monitored at 16-second time intervals with a DXT880 multiplate spectrofluorimeter (Beckman-Coulter) with excitation at 485 nm and emission at 595 nm for 900 seconds. […] Cellular doxorubicin retention was measured as a change of fluoresence at time=400 sec versus time=0 sec. […] Results are the average of 3 experiments, with 3-8 measurements per experiment. Statistical significance was assigned with the two-way analysis of variance (ANOVA). A P<0.05 is considered significant.

[4] = tested on: Wild type E. coli cells; assay: Doxorubicin retention in wild type E. coli cells; assay type: cell-based; conditions: 50 μM PSC
[5] = tested on: P-gp; conditions: human and murine MDR cell lines; cited from earlier work
[6] = biological target: MsbA from Salmonella typhimurium (detergent solubilized, purified) (Salmonella typhimurium) (UniProt P63359); assay: cell-based or functional assay
[7] = biological target: the molecule itself; assay: X-ray crystal structure of MsbA.ADP.Vi.Ra LPS, 4.2 Å

Molecule: COc1cccc2c1C(=O)c1c(O)c3c(c(O)c1C2=O)C[C@@](O)(C(=O)CO)C[C@@H]3O[C@H]1C[C@H](N)[C@H](O)[C@H](C)O1 [Doxorubicin, doxorubicin]
- effect on ATPase activity [1]: stimulates ATPase activity in a dose dependent manner
- concentration of maximum stimulation of ATPase activity ([1]; dose dependent stimulation): 100 µM

Molecule: CCCCCCCCCCCCCC(=O)O[C@H](CCCCCCCCCCC)CC(=O)O[C@@H]1[C@@H](NC(=O)C[C@@H](CCCCCCCCCCC)OC(=O)CCCCCCCCCCC)[C@H](OC[C@H]2O[C@H](OP(=O)(O)O)[C@H](NC(=O)C[C@H](O)CCCCCCCCCCC)[C@@H](OC(=O)C[C@H](O)CCCCCCCCCCC)[C@@H]2O)O[C@H](CO[C@]2(C(=O)O)C[C@@H](O[C@]3(C(=O)O)C[C@@H](O)[C@@H](O)[C@@H]([C@H](O)CO)O3)[C@@H](O)[C@@H]([C@H](O)CO)O2)[C@H]1OP(=O)(O)O [Kdo2-lipid A]
- stimulatory effect on ATP activity of MsbA ([2]; compared with Ra LPS): larger stimulatory effect

Molecule: C/C=C/C[C@@H](C)C(=O)[C@H]1C(=O)N[C@@H](C(C)C)C(=O)N(C)CC(=O)N(C)[C@@H](CC(C)C)C(=O)N[C@@H](C(C)C)C(=O)N(C)[C@@H](CC(C)C)C(=O)N[C@@H](C)C(=O)N[C@H](C)C(=O)N(C)[C@@H](CC(C)C)C(=O)N(C)[C@@H](CC(C)C)C(=O)N(C)[C@@H](C(C)C)C(=O)N1C [PSC, [3′-Desoxy-3′-oxo-MeBmt]^1-[Val]^2-Ciclosporin]
- doxorubicin retention [3]: alters the retention of doxorubicin; also recorded: mediates doxorubicin retention
- increase in doxorubicin retention [4]: less than 10%
- stimulation of ATPase over basal activity ([1]; PSC at concentrations of 50-250 μM, basal activity 1.25 μmol ATP/min/mg of protein): up to 55%
- effect on MsbA ATPase activity ([1]; concentrations less than 50 μM): modulated
- effect on doxorubicin stimulated ATPase activity of MsbA ([1]; doxorubicin stimulated): modulates doxorubicin stimulated ATPase activity
- inhibition of P-gp mediated drug accumulation [5]: potent inhibitor

Molecule: PSC-833, [3'-Desoxy-3'-oxo-MeBmt]1-[Val]2-Ciclosporin (peptide)
- ATPase activity of detergent solubilized MsbA (linked enzyme assay) (% over basal activity) [6]: < 55

Molecule: lipid A
- stimulation of MsbA ATPase ([2]; studies in vitro): specifically stimulated

B1: MsbA from Salmonella typhimurium (detergent solubilized, purified) (other)
chain: MHNDKDLSTWQTFRRLWPTIAPFKAGLIVAGIALILNAASDTFMLSLLKPLLDDGFGKTDRSVLLWMPLVVIGLMILRGITSYISSYCISWVSGKVVMTMRRRLFGHMMGMPVAFFDKQSTGTLLSRITYDSEQVASSSSGALITVVREGASIIGLFIMMFYYSWQLSIILVVLAPIVSIAIRVVSKRFRSISKNMQNTMGQVTTSAEQMLKGHKEVLIFGGQEVETKRFDKVSNKMRLQGMKMVSASSISDPIIQLIASLALAFVLYAASFPSVMDSLTAGTITVVFSSMIALMRPLKSLTNVNAQFQRGMAACQTLFAILDSEQEKDEGKRVIDRATGDLEFRNVTFTYPGREVPALRNINLKIPAGKTVALVGRSGSGKSTIASLITRFYDIDEGHILMDGHDLREYTLASLRNQVALVSQNVHLFNDTVANNIAYARTEEYSREQIEEAARMAYAMDFINKMDNGLDTIIGENGVLLSGGQRQRIAIARALLRDSPILILDEATSALDTESERAIQAALDELQKNRTSLVIAHRLSTIEQADEIVVVEDGIIVERGTHSELLAQHGVYAQLHKMQFGQ
notes: also called ST-MsbA; ABC Transporter MsbA
- binding result [7]: binds
